molecular target: T1, CXCR7 (Homo sapiens, UniProt P25106); experiment: PathHunter CHO-K1 CXCR7 b-arrestin recruitment assay (CXCR7 agonistic activity); assay type: cell-based; settings: PathHunter CHO-K1 CXCR7 b-arrestin cell line
T1 construct: host or cells: CHO-K1 (PathHunter CHO-K1 CXCR7 b-arrestin cell line, stably transfected)
Outline: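 Stable CHO-K1 line with C-terminally ProLink-tagged CXCR7 and β-arrestin 2–EA fusion; β-arrestin recruitment restores β-gal activity, read by chemiluminescence after 1 h RT detection. Cells seeded 24 h, starved in OPTIMEM 3–4 h, exposed to compounds 90 min at 37 °C in HBSS/HEPES/BSA. Geometric-mean EC50 from repeated measurements.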

T1 sequence (P25106 whole entry): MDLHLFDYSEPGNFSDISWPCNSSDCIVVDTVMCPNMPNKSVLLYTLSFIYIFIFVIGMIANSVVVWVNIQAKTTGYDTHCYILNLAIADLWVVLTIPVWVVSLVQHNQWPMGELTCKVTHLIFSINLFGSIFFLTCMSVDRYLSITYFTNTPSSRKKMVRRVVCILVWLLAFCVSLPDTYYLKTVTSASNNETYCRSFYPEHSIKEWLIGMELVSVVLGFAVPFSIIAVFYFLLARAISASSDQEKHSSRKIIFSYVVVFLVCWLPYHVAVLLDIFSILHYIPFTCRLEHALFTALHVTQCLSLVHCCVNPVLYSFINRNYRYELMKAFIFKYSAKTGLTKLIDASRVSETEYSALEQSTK
T1 sequence (P32121 whole entry partner): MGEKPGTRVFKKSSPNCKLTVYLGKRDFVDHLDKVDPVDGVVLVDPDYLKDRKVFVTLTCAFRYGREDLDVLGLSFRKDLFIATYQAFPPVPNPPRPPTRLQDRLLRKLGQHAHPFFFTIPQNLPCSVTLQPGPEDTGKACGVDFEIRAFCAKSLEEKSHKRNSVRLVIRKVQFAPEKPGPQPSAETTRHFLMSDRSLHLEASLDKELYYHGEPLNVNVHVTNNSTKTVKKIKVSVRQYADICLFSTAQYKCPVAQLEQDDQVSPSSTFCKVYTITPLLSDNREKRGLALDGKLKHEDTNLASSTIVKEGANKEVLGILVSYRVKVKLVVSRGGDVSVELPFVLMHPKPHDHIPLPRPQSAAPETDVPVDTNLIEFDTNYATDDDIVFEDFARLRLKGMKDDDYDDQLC

Compound	EC50
CN(C)CCN(Cc1ccccc1)C(=O)COc1cccc2c1CCN(C(=O)OC(C)(C)C)C2 [Example 101, 5-{[Benzyl-(2-dimethylamino-ethyl)-carbamoyl]-methoxy}-3,4-dihydro-1H-isoquinoline-2-carboxylic acid tert-butyl ester]	148 nM
C/C(=C\c1cccc2c1CCN(C(=O)OC(C)(C)C)C2)C(=O)N(CCN(C)C)Cc1ccccc1C(F)(F)F [Example 97, 5-{(E)-2-[(2-Dimethylamino-ethyl)-(2-trifluoromethyl-benzyl)-carbamoyl]-propenyl}-3,4-dihydro-1H-isoquinoline-2-carboxylic acid tert-butyl ester]	365 nM
CCN1Cc2c(NCC(=O)N(CCN(C)C)Cc3ccccc3Cl)cccc2C(C)(C)C1 [compound 196]	264 nM
CN(C)CCN(Cc1ccccc1)C(=O)CNc1cccc2c1CCN(C(=O)OCc1ccccc1)C2 [compound 131]	450 nM
CCOC(=O)[C@@H]1C[C@H]1CN(Cc1ccccc1C(F)(F)F)C(=O)CNc1cccc2c1CCN(CC1CC1)C2 (racemic) [Example 81, rac-trans-2-{[[2-(2-Cyclopropylmethyl-1,2,3,4-tetrahydro-isoquinolin-5-ylamino)-acetyl]-(2-trifluoromethyl-benzyl)-amino]-methyl}-cyclopropanecarboxylic acid ethyl ester]	126 nM
CN(C)CCN(Cc1ccccc1)C(=O)CNc1cccc2c1CCN(C(=O)CC1CCCCC1)C2 [compound 129]	449 nM
CN(CCN(Cc1ncccc1C(F)(F)F)C(=O)CNc1cccc2c1CCN(CC1CC1)C2)C(=O)OC(C)(C)C [Example 215, {2-[[2-(2-Cyclopropylmethyl-1,2,3,4-tetrahydro-isoquinolin-5-ylamino)-acetyl]-(3-trifluoromethyl-pyridin-2-ylmethyl)-amino]-ethyl}-methyl-carbamic acid tert-butyl ester]	108 nM
CN(C)CCN(CCc1ccccc1)C(=O)Cc1cccc2c1CCN(CC1CC1)C2 [Example 2, 2-(2-Cyclopropylmethyl-1,2,3,4-tetrahydro-isoquinolin-5-yl)-N-(2-dimethylamino-ethyl)-N-phenethyl-acetamide]	144 nM
CN(C)CCN(Cc1ccccc1C(F)(F)F)C(=O)CNc1ccc(Cl)c2c1CCN(CC1CC1)C2 [Example 287, 2-(8-Chloro-2-cyclopropylmethyl-1,2,3,4-tetrahydro-isoquinolin-5-ylamino)-N-(2-dimethylamino-ethyl)-N-(2-trifluoromethyl-benzyl)-acetamide]	150 nM
CN(C)CCN(Cc1ccccc1)C(=O)COc1cccc2c1CN(C)CC2 [Example 201, N-Benzyl-N-(2-dimethylamino-ethyl)-2-(2-methyl-1,2,3,4-tetrahydro-isoquinolin-8-yloxy)-acetamide]	27 nM
COC(=O)N1CCc2c(cccc2OCC(=O)N(CCN(C)C)Cc2ccccc2)C1 [Example 167, 5-{[Benzyl-(2-dimethylamino-ethyl)-carbamoyl]-methoxy}-3,4-dihydro-1H-isoquinoline-2-carboxylic acid methyl ester]	39 nM
CN(C)CCN(Cc1ccccc1)C(=O)CNc1cccc2c1CCN(Cc1ccco1)C2 [compound 118]	126 nM
CN(C)CCN(Cc1ccccc1)C(=O)CNc1cccc2c1CCN(CC(F)(F)F)C2 [Example 85, N-Benzyl-N-(2-dimethylamino-ethyl)-2-[2-(2,2,2-trifluoro-ethyl)-1,2,3,4-tetrahydro-isoquinolin-5-ylamino]-acetamide]	187 nM
COCCN1CCc2c(/C=C/C(=O)N(CCN3CCC(F)(F)CC3)Cc3ncccc3C(F)(F)F)cccc2C1 [Example 322, (E)-N-[2-(4,4-Difluoro-piperidin-1-yl)-ethyl]-3-[2-(2-methoxy-ethyl)-1,2,3,4-tetrahydro-isoquinolin-5-yl]-N-(3-trifluoromethyl-pyridin-2-ylmethyl)-acrylamide]	119 nM
CCC(=O)N1CCc2c(cccc2NCC(=O)N(CCN(C)C)Cc2ccc(C(F)(F)F)cc2)C1 [Example 34, N-(2-Dimethylamino-ethyl)-2-(2-propionyl-1,2,3,4-tetrahydro-isoquinolin-5-ylamino)-N-(4-trifluoromethyl-benzyl)-acetamide]	132 nM
CC(C)CCN(Cc1ccccc1)C(=O)CNc1cccc2c1CCN(C)C2 [compound 132]	130 nM
2-(2-Cyclopropylmethyl-1,2,3,4-tetrahydro-isoquinolin-5-ylamino)-N-(2-dimethylamino-ethyl)-N-pyridin-3-ylmethyl-acetamide [Example 263]	127 nM
CCN1Cc2c(NCC(=O)N(CCN(C)C)Cc3ccccc3C(F)(F)F)cccc2C(C)(C)C1 [compound 198]	388 nM
CN(C)CCN(Cc1ccccc1C(F)(F)F)C(=O)Cc1cccc2c1CCN(CC1CC1)C2 [Example 6, 2-(2-Cyclopropylmethyl-1,2,3,4-tetrahydro-isoquinolin-5-yl)-N-(2-dimethylamino-ethyl)-N-(2-trifluoromethyl-benzyl)-acetamide]	60 nM
CN(C)CCN(Cc1ccccc1Cl)C(=O)CNc1cc(C(F)(F)F)cc2c1CCN(CC1CC1)C2 [Example 295, N-(2-Chloro-benzyl)-2-(2-cyclopropylmethyl-7-trifluoromethyl-1,2,3,4-tetrahydro-isoquinolin-5-ylamino)-N-(2-dimethylamino-ethyl)-acetamide]	411 nM

More lines, in order of falling EC50, values ahead:

EC50	Compound
102 nM	CCC(=O)N1CCc2c(cccc2NCC(=O)N(CCN(C)C)Cc2ccc(Cl)cc2)C1 [Example 19, N-(4-Chloro-benzyl)-N-(2-dimethylamino-ethyl)-2-(2-propionyl-1,2,3,4-tetrahydro-isoquinolin-5-ylamino)-acetamide]
72 nM	CCN1CCc2c(CCC(=O)N(Cc3ccccc3C(F)(F)F)C3CCN(C)CC3)cccc2C1 [compound 159]
64 nM	CNCCN(Cc1ccccc1C(F)(F)F)C(=O)CNc1cccc2c1CCN(C(=O)OC(C)C)C2 [compound 399]
47 nM	CN(C)CCN(Cc1ccc(Cl)cn1)C(=O)CNc1cccc2c1CCN(CC1CC1)C2 [Example 261, N-(5-Chloro-pyridin-2-ylmethyl)-2-(2-cyclopropylmethyl-1,2,3,4-tetrahydro-isoquinolin-5-ylamino)-N-(2-dimethylamino-ethyl)-acetamide]
44 nM	Cc1ccccc1CCN(CCN(C)C)C(=O)CNc1cccc2c1CCN(CC1CC1)C2 [Example 40, 2-(2-Cyclopropylmethyl-1,2,3,4-tetrahydro-isoquinolin-5-ylamino)-N-(2-dimethylamino-ethyl)-N-(2-o-tolyl-ethyl)-acetamide]
32 nM	O=C(CNc1cccc2c1CCN(CC1CC1)C2)N(CCN1CCC(F)(F)CC1)Cc1ccccc1Cl [Example 248, N-(2-Chloro-benzyl)-2-(2-cyclopropylmethyl-1,2,3,4-tetrahydro-isoquinolin-5-ylamino)-N-[2-(4,4-difluoro-piperidin-1-yl)-ethyl]-acetamide]
16 nM	CN1CCCC1CCN(CCc1ccccc1)C(=O)CNc1cccc2c1CCN(CC1CC1)C2 (racemic) [Example 49, rac-2-(2-Cyclopropylmethyl-1,2,3,4-tetrahydro-isoquinolin-5-ylamino)-N-[2-(1-methyl-pyrrolidin-2-yl)-ethyl]-N-phenethyl-acetamide]
15 nM	CCC(=O)N1CCc2c(cccc2NCC(=O)N(CCN(C)C)Cc2ccccc2C)C1 [Example 15, N-(2-Dimethylamino-ethyl)-N-(2-methyl-benzyl)-2-(2-propionyl-1,2,3,4-tetrahydro-isoquinolin-5-ylamino)-acetamide]
13 nM	CCCCN(C)CCN(Cc1ccccc1)C(=O)CNc1cccc2c1CCN(C(=O)CC)C2 [Example 31, N-Benzyl-N-[2-(butyl-methyl-amino)-ethyl]-2-(2-propionyl-1,2,3,4-tetrahydro-isoquinolin-5-ylamino)-acetamide]
13 nM	CCC(=O)N1CCc2cccc(NCC(=O)N(CCN(C)C)Cc3ccccc3C(F)(F)F)c2C1 [compound 559, N-(2-Dimethylamino-ethyl)-2-(2-propionyl-1,2,3,4-tetrahydro-isoquinolin-8-ylamino)-N-(2-trifluoromethyl-benzyl)-acetamide]
11 nM	Cc1cccnc1CN(CCN(C)C)C(=O)CNc1cccc2c1CCN(CC1CC1)C2 [Example 256, 2-(2-Cyclopropylmethyl-1,2,3,4-tetrahydro-isoquinolin-5-ylamino)-N-(2-dimethylamino-ethyl)-N-(3-methyl-pyridin-2-ylmethyl)-acetamide]
11 nM	CNCCN(Cc1ccccc1C(F)(F)F)C(=O)CNc1cccc2c1CCN(C(C)=O)C2 [compound 445, 2-(2-Acetyl-1,2,3,4-tetrahydro-isoquinolin-5-ylamino)-N-(2-methylamino-ethyl)-N-(2-trifluoromethyl-benzyl)-acetamide]
5 nM	CN(C)CCN(Cc1ccccc1C(F)(F)F)C(=O)CNc1cccc2c1CCN(c1ccccn1)C2 [Example 374, N-(2-Dimethylamino-ethyl)-2-(2-pyridin-2-yl-1,2,3,4-tetrahydro-isoquinolin-5-ylamino)-N-(2-trifluoromethyl-benzyl)-acetamide]
5 nM	CN(C)CCN(Cc1ccccc1C(F)(F)F)C(=O)CNc1cccc2c1CN(C(=O)C1CC1)CC2 [compound 560, 2-(2-Cyclopropanecarbonyl-1,2,3,4-tetrahydro-isoquinolin-8-ylamino)-N-(2-dimethylamino-ethyl)-N-(2-trifluoromethyl-benzyl)-acetamide]
4 nM	CNCCN(Cc1ccccc1Cl)C(=O)CNc1cccc2c1CCN(CC1CC1)C2 [compound 446, N-(2-Chloro-benzyl)-2-(2-cyclopropylmethyl-1,2,3,4-tetrahydro-isoquinolin-5-ylamino)-N-(2-methylamino-ethyl)-acetamide]
